# Results published in patent US8394789B2, “(Dihydro)pyrrolo[2,1-α]isoquinolines” (MSD Oss B.V., priority 2008, dated 2013).
# Target: T1, human FSH receptor (Homo sapiens, UniProt P23945)
# T1 construct: expressed in transfected cells
# T1 sequence (P23945 18-695): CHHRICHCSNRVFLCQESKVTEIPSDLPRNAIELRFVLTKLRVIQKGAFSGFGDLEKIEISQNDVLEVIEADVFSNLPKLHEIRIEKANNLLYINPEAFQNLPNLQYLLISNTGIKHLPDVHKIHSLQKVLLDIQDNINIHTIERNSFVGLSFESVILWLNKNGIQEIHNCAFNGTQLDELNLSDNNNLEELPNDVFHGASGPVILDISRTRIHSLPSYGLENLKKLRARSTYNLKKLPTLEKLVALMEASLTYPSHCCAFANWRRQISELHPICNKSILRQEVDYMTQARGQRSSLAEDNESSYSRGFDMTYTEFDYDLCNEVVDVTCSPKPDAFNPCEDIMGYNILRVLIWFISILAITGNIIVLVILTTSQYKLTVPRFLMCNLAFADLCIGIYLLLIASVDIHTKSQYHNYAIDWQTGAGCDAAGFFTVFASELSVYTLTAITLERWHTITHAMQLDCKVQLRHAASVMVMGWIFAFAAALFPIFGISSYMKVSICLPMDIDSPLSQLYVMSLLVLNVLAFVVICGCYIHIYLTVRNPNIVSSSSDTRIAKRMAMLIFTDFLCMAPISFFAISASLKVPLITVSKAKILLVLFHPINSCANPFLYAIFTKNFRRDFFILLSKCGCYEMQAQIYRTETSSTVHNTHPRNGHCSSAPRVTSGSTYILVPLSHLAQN
# Experiment: hFSHRago (CHO luc): agonistic activity at the human FSH receptor expressed in CHO cells, CRE-luciferase reporter
# Format: cell-based
# Conditions: CHO cells stably transfected with human FSH receptor and CRE/luciferase reporter; 4 hours of incubation
row,Structure (SMILES),EC50
1,"COc1cc2c(cc1OCCN=[N+]=[N-])-c1c(-c3cccs3)cc(C(=O)N(C)C(C)(C)C)n1CC2 [Example 65f, 9-(2-Azido-ethoxy)-8-methoxy-1-thiophen-2-yl-5,6-dihydro-pyrrolo[2,1-α]isoquinoline-3-carboxylic acid tert-butyl-methyl-amide]",0.0071 µM
2,"COC(=O)NCCOc1cc2c(cc1OC)CCn1c(C(=O)N(C)C(C)(C)C)cc(-c3cccs3)c1-2 [Example 66, {2-[3-(tert-Butyl-methyl-carbamoyl)-8-methoxy-1-thiophen-2-yl-5,6-dihydro-pyrrolo[2,1-α]isoquinolin-9-yloxy]-ethyl}-carbamic acid methyl ester]",0.0313 µM
3,"COc1cc2c(cc1OCCNS(C)(=O)=O)-c1c(-c3cccs3)cc(C(=O)N(C)C(C)(C)C)n1CC2 [Example 68, 9-(2-Methanesulfonylamino-ethoxy)-8-methoxy-1-thiophen-2-yl-5,6-dihydro-pyrrolo[2,1-α]isoquinoline-3-carboxylic acid tert-butyl-methyl-amide]",0.016 µM
4,"COc1cc2c(cc1OCCCN=[N+]=[N-])-c1c(-c3cccs3)cc(C(=O)N(C)C(C)(C)C)n1CC2 [Example 70f, 9-(3-Azido-propoxy)-8-methoxy-1-thiophen-2-yl-5,6-dihydro-pyrrolo[2,1-α]isoquinoline-3-carboxylic acid tert-butyl-methyl-amide]",0.0109 µM
5,"COc1cc2c(cc1OCCCN)-c1c(-c3cccs3)cc(C(=O)N(C)C(C)(C)C)n1CC2 [Example 70g, 9-(3-Amino-propoxy)-8-methoxy-1-thiophen-2-yl-5,6-dihydro-pyrrolo[2,1-α]iso-quinoline-3-carboxylic acid tert-butyl-methyl-amide]",0.111 µM
6,"COc1cc2c(cc1OCCSC)-c1c(-c3cccs3)cc(C(=O)N(C)C(C)(C)C)n1CC2 [Example 71, 8-Methoxy-9-(2-methylsulfanyl-ethoxy)-1-thiophen-2-yl-5,6-dihydro-pyrrolo[2,1-α]isoquinoline-3-carboxylic acid tert-butyl-methyl-amide]",0.0263 µM
7,"COc1cc2c(cc1OCCN(C)C)-c1c(-c3cccs3)cc(C(=O)N(C)C(C)(C)C)n1CC2 [Example 73, 9-(2-Dimethylamino-ethoxy)-8-methoxy-1-thiophen-2-yl-5,6-dihydro-pyrrolo[2,1-α]isoquinoline-3-carboxylic acid tert-butyl-methyl-amide; trifluoro acetic acid]",0.118 µM
8,"COc1cc2c(cc1OCCC(C)C)-c1c(-c3cccs3)cc(C(=O)N3CCCN(C(C)=O)CC3)n1CC2 [Example 80, 1-{4-[8-Methoxy-9-(3-methyl-butoxy)-1-thiophen-2-yl-5,6-dihydro-pyrrolo[2,1-α]isoquinoline-3-carbonyl]-perhydro-1,4-diazepin-1-yl}-ethanone]",0.101 µM
9,"COc1cc2c(cc1CC(C)C)-c1c(-c3cccs3)cc(C(=O)N(C)C(C)(C)CO)n1CC2 [Example 81, 9-Isobutyl-8-methoxy-1-thiophen-2-yl-5,6-dihydro-pyrrolo[2,1-α]isoquinoline-3-carboxylic acid (2-hydroxy-1,1-dimethyl-ethyl)-methyl-amide]",0.006 µM
10,"COc1cc2c(cc1C#N)-c1c(-c3cccs3)cc(C(=O)N(C)C(C)(C)C)n1CC2 [Example 83, 9-Cyano-8-methoxy-1-thiophen-2-yl-5,6-dihydro-pyrrolo[2,1--α]isoquinoline-3-carboxylic acid tert-butyl-methyl-amide]",0.0043 µM
11,"COc1cc2c(cc1Br)-c1c(-c3cccs3)cc(C(=O)N(C)C(C)(C)C)n1CC2 [Example 85a, 9-Bromo-8-methoxy-1-thiophen-2-yl-5,6-dihydro-pyrrolo[2,1--α]isoquinoline-3-carboxylic acid tert-butyl-methyl-amide]",0.0113 µM
12,"CC#Cc1cc2c(cc1OC)CCn1c(C(=O)N(C)C(C)(C)C)cc(-c3cccs3)c1-2 [Example 85b, 8-Methoxy-9-prop-1-ynyl-1-thiophen-2-yl-5,6-dihydro-pyrrolo[2,1--α]isoquinoline-3-carboxylic acid tert-butyl-methyl-amide]",0.0027 µM

# Next, values leading:
row,EC50,Structure (SMILES)
1,0.0031 µM,"CNC(=O)COc1cc2c(cc1OC)CCn1c(C(=O)N(C)C(C)(C)C)cc(-c3cccs3)c1-2 [Example 64, 8-Methoxy-9-methylcarbamoylmethoxy-1-thiophen-2-yl-5,6-dihydro-pyrrolo[2,1-α]isoquinoline-3-carboxylic acid tert-butyl-methyl-amide]"
2,0.102 µM,"COc1cc2c(cc1OCCOC1CCCCO1)-c1c(-c3cccs3)cc(C(=O)N(C)C(C)(C)C)n1CC2 (stereo not drawn) [Example 65c, 8-Methoxy-9-[2-(tetrahydro-pyran-2-yloxy)-ethoxy]-1-thiophen-2-yl-5,6-dihydro-pyrrolo[2,1-α]isoquinoline-3-carboxylic acid tert-butyl-methyl-amide]"
3,0.0013 µM,"COc1cc2c(cc1OCCO)-c1c(-c3cccs3)cc(C(=O)N(C)C(C)(C)C)n1CC2 [Example 65d, 9-(2-Hydroxy-ethoxy)-8-methoxy-1-thiophen-2-yl-5,6-dihydro-pyrrolo[2,1-α]iso-quinoline-3-carboxylic acid tert-butyl-methyl-amide]"
4,0.015 µM,"COc1cc2c(cc1OCCOS(C)(=O)=O)-c1c(-c3cccs3)cc(C(=O)N(C)C(C)(C)C)n1CC2 [Example 65e, Methanesulfonic acid 2-[3-(tert-butyl-methyl-carbamoyl)-8-methoxy-1-thiophen-2-yl-5,6-dihydro-pyrrolo[2,1-α]isoquinolin-9-yloxy]-ethyl ester]"
5,0.0365 µM,"COc1cc2c(cc1OCCNC(C)=O)-c1c(-c3cccs3)cc(C(=O)N(C)C(C)(C)C)n1CC2 [Example 67, 9-(2-Acetylamino-ethoxy)-8-methoxy-1-thiophen-2-yl-5,6-dihydro-pyrrolo[2,1-α]isoquinoline-3-carboxylic acid tert-butyl-methyl-amide]"
6,0.0069 µM,"COc1cc2c(cc1OC1CCCCO1)-c1c(-c3cccs3)cc(C(=O)N(C)C(C)(C)C)n1CC2 (stereo not drawn) [Example 69, 8-Methoxy-9-(tetrahydro-pyran-2-yloxy)-1-thiophen-2-yl-5,6-dihydro-pyrrolo[2,1-α]isoquinoline-3-carboxylic acid tert-butyl-methyl-amide]"
7,0.155 µM,"COc1cc2c(cc1OCCCOC1CCCCO1)-c1c(-c3cccs3)cc(C(=O)N(C)C(C)(C)C)n1CC2 (stereo not drawn) [Example 70c, 8-Methoxy-9-[3-(tetrahydro-pyran-2-yloxy)-propoxy]-1-thiophen-2-yl-5,6-dihydro-pyrrolo[2,1-α]isoquinoline-3-carboxylic acid tert-butyl-methyl-amide]"
8,0.0013 µM,"COc1cc2c(cc1OCCCO)-c1c(-c3cccs3)cc(C(=O)N(C)C(C)(C)C)n1CC2 [Example 70d, 9-(3-Hydroxy-propoxy)-8-methoxy-1-thiophen-2-yl-5,6-dihydro-pyrrolo[2,1-α]iso-quinoline-3-carboxylic acid tert-butyl-methyl-amide]"
9,0.0169 µM,"COc1cc2c(cc1OCCS(C)(=O)=O)-c1c(-c3cccs3)cc(C(=O)N(C)C(C)(C)C)n1CC2 [Example 72, 9-(2-Methanesulfonyl-ethoxy)-8-methoxy-1-thiophen-2-yl-5,6-dihydro-pyrrolo[2,1-α]isoquinoline-3-carboxylic acid tert-butyl-methyl-amide]"
10,0.0576 µM,"COc1cc2c(cc1OCC1CC1)-c1c(-c3cccs3)cc(C(=O)N3CCCN(C(C)=O)CC3)n1CC2 [Example 77, 1-[4-(9-Cyclopropylmethoxy-8-methoxy-1-thiophen-2-yl-5,6-dihydro-pyrrolo[2,1-α]iso-quinoline-3-carbonyl)-perhydro-1,4-diazepin-1-yl]-ethanone]"
11,0.0962 µM,"COc1cc2c(cc1OCC1CCCO1)-c1c(-c3cccs3)cc(C(=O)N3CCCN(C(C)=O)CC3)n1CC2 (stereo not drawn) [Example 78, 1-{4-[8-Methoxy-9-(tetrahydro-furan-2-ylmethoxy)-1-thiophen-2-yl-5,6-dihydro-pyrrolo[2,1-α]isoquinoline-3-carbonyl]-perhydro-1,4-diazepin-1-yl}-ethanone]"
12,0.0142 µM,"COc1cc2c(cc1OC1CCCC1)-c1c(-c3cccs3)cc(C(=O)N3CCCN(C(C)=O)CC3)n1CC2 [Example 79, 1-[4-(9-Cyclopentyloxy-8-methoxy-1-thiophen-2-yl-5,6-dihydro-pyrrolo[2,1-α]isoquinoline-3-carbonyl)-perhydro-1,4-diazepin-1-yl]-ethanone]"
13,0.0058 µM,"COC1=CC2CCn3c(C(=O)N4CCCN(C(=O)C5CCC5)CC4)cc(-c4cccs4)c3C2C=C1Br (stereo not drawn) [Example 82, (9-Bromo-8-methoxy-1-thiophen-2-yl-5,6,6a,10a-tetrahydro-pyrrolo[2,1--α]isoquinolin-3-yl)-(4-cyclobutanecarbonyl-[1,4]diazepan-1-yl)-methanone]"
14,0.0029 µM,"CCOC(=O)c1cc2c(cc1OC)CCn1c(C(=O)N3CCCN(C(=O)C4CCC4)CC3)cc(-c3cccs3)c1-2 [Example 84, 3-(4-Cyclobutanecarbonyl-[1,4]diazepane-1-carbonyl)-8-methoxy-1-thiophen-2-yl-5,6-dihydro-pyrrolo[2,1--α]isoquinoline-9-carboxylic acid ethyl ester]"
15,0.0694 µM,COc1cc2c(cc1C(=O)N1CCOCC1)-c1c(-c3cccs3)cc(C(=O)N(C)C(C)(C)C)n1CC2 [Example 86]
